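Protocol summary: plate cells (96-well), add compound at 5 concentrations, incubate 48 h, interpolate endpoints linearly. Abbreviation: GI50, concentration required for 50% inhibition of growth. TGI: total growth inhibition.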
Key:
Test in all cases: NCI anticancer screen, dose series, 48 h
NCI-H522 lung = tested on: NCI-H522 lung
HCC-2998 colon = tested on: HCC-2998 colon
RXF 393 renal = tested on: RXF 393 renal
HOP-92 NSCLC = tested on: HOP-92 NSCLC
MDA-MB-435 = tested on: MDA-MB-435
UACC-62 melanoma = tested on: UACC-62 melanoma
UO-31 renal = tested on: UO-31 renal
SNB-75 CNS = tested on: SNB-75 CNS
CAKI-1 renal = tested on: CAKI-1 renal
TK-10 renal = tested on: TK-10 renal
U251 CNS = tested on: U251 CNS
EKVX NSCLC = tested on: EKVX NSCLC
MCF7 breast = tested on: MCF7 breast
HOP-62 NSCLC = tested on: HOP-62 NSCLC
DU-145 prostate = tested on: DU-145 prostate
A549 NSCLC = tested on: A549 NSCLC
HS 578T breast = tested on: HS 578T breast
SK-MEL-28 melanoma = tested on: SK-MEL-28 melanoma
BT-549 breast = tested on: BT-549 breast
T-47D breast = tested on: T-47D breast
OVCAR-3 ovarian = tested on: OVCAR-3 ovarian
PC-3 prostate = tested on: PC-3 prostate
SF-268 CNS = tested on: SF-268 CNS
SF-539 CNS = tested on: SF-539 CNS
UACC-257 melanoma = tested on: UACC-257 melanoma
HCT-116 colon = tested on: HCT-116 colon
KM12 colon = tested on: KM12 colon
IGROV1 ovarian = tested on: IGROV1 ovarian
MALME-3M melanoma = tested on: MALME-3M melanoma
NCI-H23 lung = tested on: NCI-H23 lung
OVCAR-4 ovarian = tested on: OVCAR-4 ovarian
HCT-15 colon = tested on: HCT-15 colon
SK-MEL-2 melanoma = tested on: SK-MEL-2 melanoma
M14 melanoma = tested on: M14 melanoma
OVCAR-8 ovarian = tested on: OVCAR-8 ovarian
CCRF-CEM leukemia = tested on: CCRF-CEM leukemia
786-0 renal = tested on: 786-0 renal
SNB-19 CNS = tested on: SNB-19 CNS
LOX IMVI melanoma = tested on: LOX IMVI melanoma
A498 renal = tested on: A498 renal
RPMI-8226 leukemia = tested on: RPMI-8226 leukemia
ACHN renal = tested on: ACHN renal
SN12C renal = tested on: SN12C renal
SK-MEL-5 melanoma = tested on: SK-MEL-5 melanoma
OVCAR-5 ovarian = tested on: OVCAR-5 ovarian
COLO 205 colon = tested on: COLO 205 colon
SW-620 colon = tested on: SW-620 colon
NCI-H460 lung = tested on: NCI-H460 lung
HT29 colon = tested on: HT29 colon
MDA-MB-231 breast = tested on: MDA-MB-231 breast
NCI/ADR-RES ovarian = tested on: NCI/ADR-RES ovarian
NCI-H226 lung = tested on: NCI-H226 lung
SK-OV-3 ovarian = tested on: SK-OV-3 ovarian
SF-295 CNS = tested on: SF-295 CNS
K-562 leukemia = tested on: K-562 leukemia
MOLT-4 leukemia = tested on: MOLT-4 leukemia

Compound: C=C(C)[C@@H]1CC[C@@]2(C(=O)O)CC[C@]3(C)C(CCC4[C@@]5(C)CCC(OS(=O)(=O)c6ccccc6)C(C)(C)C5CC[C@]43C)C12 (stereo not given in full)
- GI50 (NCI-H522 lung): 2.36 µM
- TGI (NCI-H522 lung): 13.2 µM
- GI50 (HCC-2998 colon): 2.28 µM
- TGI (HCC-2998 colon): 10.5 µM
- GI50 (RXF 393 renal): 13.8 µM
- TGI (RXF 393 renal): 29.7 µM
- GI50 (HOP-92 NSCLC): 2.47 µM
- TGI (HOP-92 NSCLC): 16.2 µM
- GI50 (MDA-MB-435): 4.49 µM
- TGI (MDA-MB-435): 20.1 µM
- GI50 (UACC-62 melanoma): 2.55 µM
- TGI (UACC-62 melanoma): 19.3 µM
- GI50 (UO-31 renal): 2.79 µM
- TGI (UO-31 renal): 15.9 µM
- GI50 (SNB-75 CNS): 11.5 µM
- TGI (SNB-75 CNS): 30.5 µM
- GI50 (CAKI-1 renal): 2.36 µM
- TGI (CAKI-1 renal): 9.89 µM
- GI50 (TK-10 renal): 3.84 µM
- TGI (TK-10 renal): 25.4 µM
- GI50 (U251 CNS): 3.62 µM
- TGI (U251 CNS): 15.7 µM
- GI50 (EKVX NSCLC): 2.58 µM
- TGI (EKVX NSCLC): 19.3 µM
- GI50 (MCF7 breast): 4.4 µM
- TGI (MCF7 breast): 19.6 µM
- GI50 (HOP-62 NSCLC): 5.15 µM
- TGI (HOP-62 NSCLC): 18.5 µM
- GI50 (DU-145 prostate): 6.5 µM
- TGI (DU-145 prostate): 20.8 µM
- GI50 (A549 NSCLC): 2.44 µM
- TGI (A549 NSCLC): 17.7 µM
- GI50 (HS 578T breast): 8 µM
- TGI (HS 578T breast): 42.4 µM
- GI50 (SK-MEL-28 melanoma): 9.9 µM
- TGI (SK-MEL-28 melanoma): 22.4 µM
- GI50 (BT-549 breast): 3.17 µM
- TGI (BT-549 breast): 18.7 µM
- GI50 (T-47D breast): 2 µM
- TGI (T-47D breast): 17.1 µM
- GI50 (OVCAR-3 ovarian): 3.95 µM
- TGI (OVCAR-3 ovarian): 14.9 µM
- GI50 (PC-3 prostate): 1.5 µM
- TGI (PC-3 prostate): 35.8 µM
- GI50 (SF-268 CNS): 13.6 µM
- TGI (SF-268 CNS): 51.5 µM
- GI50 (SF-539 CNS): 9.93 µM
- TGI (SF-539 CNS): 22.4 µM
- GI50 (UACC-257 melanoma): 4.76 µM
- TGI (UACC-257 melanoma): 39.6 µM
- GI50 (HCT-116 colon): 2.9 µM
- TGI (HCT-116 colon): 13.1 µM
- GI50 (KM12 colon): 3.37 µM
- TGI (KM12 colon): 15 µM
- GI50 (IGROV1 ovarian): 10.4 µM
- TGI (IGROV1 ovarian): 31.2 µM
- GI50 (MALME-3M melanoma): 12.2 µM
- TGI (MALME-3M melanoma): 26 µM
- GI50 (NCI-H23 lung): 3.28 µM
- TGI (NCI-H23 lung): 15.5 µM
- GI50 (OVCAR-4 ovarian): 4.49 µM
- TGI (OVCAR-4 ovarian): 28.5 µM
- GI50 (HCT-15 colon): 2.93 µM
- TGI (HCT-15 colon): 19.9 µM
- GI50 (SK-MEL-2 melanoma): 4.4 µM
- TGI (SK-MEL-2 melanoma): 16.3 µM
- GI50 (M14 melanoma): 11.2 µM
- TGI (M14 melanoma): 25.1 µM
- GI50 (OVCAR-8 ovarian): 5.8 µM
- TGI (OVCAR-8 ovarian): 88.7 µM
- GI50 (CCRF-CEM leukemia): 5.28 µM
- TGI (CCRF-CEM leukemia): > 100 µM
- GI50 (786-0 renal): 4.73 µM
- TGI (786-0 renal): 19 µM
- GI50 (SNB-19 CNS): 10.1 µM
- TGI (SNB-19 CNS): 32.7 µM
- GI50 (LOX IMVI melanoma): 5.99 µM
- TGI (LOX IMVI melanoma): 18.6 µM
- GI50 (A498 renal): 4.68 µM
- TGI (A498 renal): 20.6 µM
- GI50 (RPMI-8226 leukemia): 1.69 µM
- TGI (RPMI-8226 leukemia): > 100 µM
- GI50 (ACHN renal): 4.42 µM
- TGI (ACHN renal): 20.6 µM
- GI50 (SN12C renal): 4.88 µM
- TGI (SN12C renal): 30.6 µM
- GI50 (SK-MEL-5 melanoma): 1.4 µM
- TGI (SK-MEL-5 melanoma): 17 µM
- GI50 (OVCAR-5 ovarian): 9.44 µM
- TGI (OVCAR-5 ovarian): 28.7 µM
- GI50 (COLO 205 colon): 5.66 µM
- TGI (COLO 205 colon): 18.2 µM
- GI50 (SW-620 colon): 3.89 µM
- TGI (SW-620 colon): 15.2 µM
- GI50 (NCI-H460 lung): 3.36 µM
- TGI (NCI-H460 lung): 15.5 µM
- GI50 (HT29 colon): 5.52 µM
- TGI (HT29 colon): 18 µM
- GI50 (MDA-MB-231 breast): 8.58 µM
- TGI (MDA-MB-231 breast): 25.6 µM
- GI50 (NCI/ADR-RES ovarian): 3.52 µM
- TGI (NCI/ADR-RES ovarian): 18 µM
- GI50 (NCI-H226 lung): 7.07 µM
- TGI (NCI-H226 lung): 28.3 µM
- GI50 (SK-OV-3 ovarian): 14 µM
- TGI (SK-OV-3 ovarian): 44.4 µM
- GI50 (SF-295 CNS): 1.93 µM
- TGI (SF-295 CNS): 11.8 µM

Compound: Cc1ccc(-c2nc(C(Cl)Cl)n3nc(-c4ccccc4)cc3n2)cc1
- GI50 (NCI-H522 lung): > 100 µM
- TGI (NCI-H522 lung): > 100 µM
- GI50 (RXF 393 renal): 0.298 µM
- TGI (RXF 393 renal): 0.896 µM
- GI50 (HOP-92 NSCLC): 0.281 µM
- TGI (HOP-92 NSCLC): 1.35 µM
- GI50 (SNB-75 CNS): > 100 µM
- TGI (SNB-75 CNS): > 100 µM
- GI50 (CAKI-1 renal): 0.31 µM
- TGI (CAKI-1 renal): 1.49 µM
- GI50 (U251 CNS): 0.322 µM
- TGI (U251 CNS): 1.53 µM
- GI50 (HOP-62 NSCLC): 0.566 µM
- TGI (HOP-62 NSCLC): 3.15 µM
- GI50 (K-562 leukemia): 1.07 µM
- TGI (K-562 leukemia): > 100 µM
- GI50 (MOLT-4 leukemia): > 100 µM
- TGI (MOLT-4 leukemia): > 100 µM
- GI50 (HS 578T breast): 1.2 µM
- TGI (HS 578T breast): 3.96 µM
- GI50 (BT-549 breast): > 100 µM
- TGI (BT-549 breast): > 100 µM
- GI50 (T-47D breast): 0.505 µM
- TGI (T-47D breast): 3.53 µM
- GI50 (OVCAR-3 ovarian): 0.222 µM
- TGI (OVCAR-3 ovarian): 0.586 µM
- GI50 (SF-268 CNS): 1.06 µM
- TGI (SF-268 CNS): 4.82 µM
- GI50 (HCT-116 colon): 0.258 µM
- TGI (HCT-116 colon): 0.712 µM
- GI50 (IGROV1 ovarian): 0.711 µM
- TGI (IGROV1 ovarian): > 100 µM
- GI50 (MALME-3M melanoma): > 100 µM
- TGI (MALME-3M melanoma): > 100 µM
- GI50 (NCI-H23 lung): 1.17 µM
- TGI (NCI-H23 lung): > 100 µM
- GI50 (OVCAR-4 ovarian): 0.68 µM
- TGI (OVCAR-4 ovarian): 3.99 µM
- GI50 (HCT-15 colon): 0.313 µM
- TGI (HCT-15 colon): 1.12 µM
- GI50 (M14 melanoma): > 100 µM
- TGI (M14 melanoma): > 100 µM
- GI50 (OVCAR-8 ovarian): 0.512 µM
- TGI (OVCAR-8 ovarian): > 100 µM
- GI50 (CCRF-CEM leukemia): > 100 µM
- TGI (CCRF-CEM leukemia): > 100 µM
- GI50 (786-0 renal): 0.676 µM
- TGI (786-0 renal): 2.17 µM
- GI50 (LOX IMVI melanoma): > 100 µM
- TGI (LOX IMVI melanoma): > 100 µM
- GI50 (RPMI-8226 leukemia): 0.499 µM
- TGI (RPMI-8226 leukemia): 3.11 µM
- GI50 (ACHN renal): 0.302 µM
- TGI (ACHN renal): 0.93 µM
- GI50 (SN12C renal): > 100 µM
- TGI (SN12C renal): > 100 µM
- GI50 (SK-MEL-5 melanoma): > 100 µM
- TGI (SK-MEL-5 melanoma): > 100 µM
- GI50 (SW-620 colon): 0.392 µM
- TGI (SW-620 colon): 2.35 µM
- GI50 (NCI-H460 lung): 0.273 µM
- TGI (NCI-H460 lung): 1.05 µM
- GI50 (HT29 colon): 1.1 µM
- TGI (HT29 colon): > 56.2 µM
- GI50 (MDA-MB-231 breast): 0.21 µM
- TGI (MDA-MB-231 breast): 0.678 µM
- GI50 (NCI/ADR-RES ovarian): 0.476 µM
- TGI (NCI/ADR-RES ovarian): 3.76 µM
- GI50 (NCI-H226 lung): > 100 µM
- TGI (NCI-H226 lung): > 100 µM
- GI50 (SK-OV-3 ovarian): 2.56 µM
- TGI (SK-OV-3 ovarian): > 100 µM

— PubChem BioAssay (NCI)
